Assays:
[1] = test system: bermudagrass; assay: Test E preemergence; assay type: in vivo, Cynodon dactylon; conditions: 21 days, scale 0 to 100
Description: (§1) Seeds of plant species selected from bermudagrass (Cynodon dactylon), Surinam grass (Brachiaria decumbens), crabgrass, large (large crabgrass, Digitaria sanguinalis), crabgrass, naked (naked crabgrass, Digitaria nuda), foxtail, green (green foxtail, Setaria viridis), johnsongrass (Sorghum halepense), kochia (Kochia scoparia), morningglory (pitted morningglory, Ipomoea lacunosa), nutsedge, purple (purple nutsedge, Cyperus rotundus), ragweed (common ragweed, Ambrosia elation), mustard, black (black mustard, Brassica nigra), guineagrass (Panicum maximum), dallisgrass (Paspalum dilatatum), barnyardgrass (Echinochloa crus-galli), sandbur (southern sandbur, Cenchrus echinatus), sowthistle (common sowthistle, Sonchus oleraceous), ryegrass, Italian (Italian ryegrass, Lolium multiflorum), signalgrass (broadleaf signalgrass, Brachiaria platyphylla), dayflower, VA (Virginia (VA) dayflower, Commelina virginica), bluegrass (annual bluegrass, Poa annua), quackgrass (Elytrigia repens), mallow (common mallow, Malva sylvestris), buckwheat, wild (wild buckwheat, Polygonum convolvulus), leafy spurge (Euphorbia esula), common chickweed (Stellaria media), wild poinsettia (Euphorbia heterophylla), pigweed, palmer (palmer pigweed, Amaranthus palmeri), and pigweed (redroot pigweed, Amaranthus retroflexus) were planted into a blend of loam soil and sand and treated preemergence with test chemicals formulated in a non-phytotoxic solvent mixture which included a surfactant.
(§2) Treated plants and controls were maintained in a greenhouse for 21 days, after which time all species were compared to controls and visually evaluated. Plant response ratings, summarized in Table E, are based on a scale of 0 to 100 where 0 is no effect and 100 is complete control. A dash (-) response means no test result.

[2] = test system: johnsongrass; assay: Test E preemergence; assay type: in vivo, Sorghum halepense; conditions: 21 days, scale 0 to 100
Description: as §1, §2

[3] = test system: fall panicum; assay: Test F postemergence; assay type: in vivo, Panicum dichotomiflorum; conditions: scale 0 to 100
Description: (§3) Seeds of plant species selected from corn (Zea mays), soybean (Glycine max), velvetleaf (Abutilon theophrasti), lambsquarters (Chenopodium album), wild poinsettia (Euphorbia heterophylla), pigweed, palmer (palmer pigweed, Amaranthus palmeri), common waterhemp (Amaranthus rudis), surinam grass (Brachiaria decumbens), large crabgrass (Digitaria sanguinalis), crabgrass, Brazil (Brazilian crabgrass, Digitaria horizontalis), fall panicum (Panicum dichotomiflorum), giant foxtail (Setaria faberii), green foxtail (Setaria viridis), goosegrass (Eleusine indica), johnsongrass (Sorghum halepense), common ragweed (Ambrosia elation), barnyardgrass (Echinochloa crus-galli), southern sandbur (Cenchrus echinatus), arrowleaf sida (Sida rhombifolia), Italian ryegrass (Lolium multiflorum), dayflower, VA (Virginia (VA) dayflower, Commelina virginica), field bindweed (Convolvulus arvensis), cocklebur (common cocklebur, Xanthium strumarium), morningglory (Ipomoea coccinea), nightshade (eastern black nightshade, Solanum ptycanthum), kochia (Kochia scoparia), yellow nutsedge (Cyperus esculentus), and hairy beggarticks (Bidens pilosa), were planted into a silt loam soil and treated preemergence with test chemicals formulated in a non-phytotoxic solvent mixture which included a surfactant.
(§4) At the same time, plants from these crop and weed species and also horseweed (Canada horseweed, Conyza canadensis), smartweed (ladysthumb smartweed, Polygonum persicaria), waterhemp_RES1, (ALS & Triazine resistant common waterhemp, Amaranthus rudis), and waterhemp_RES2, (ALS & HPPD resistant common waterhemp, Amaranthus rudis) were treated with postemergence applications of test chemicals formulated in the same manner. Plants ranged in height from 2 to 18 cm for postemergence treatments (1- to 4-leaf stage). Treated plants and controls were maintained in a greenhouse for 14 to 21 days, after which time all species were compared to controls and visually evaluated. Plant response ratings, summarized in Table F, are based on a scale of 0 to 100 where 0 is no effect and 100 is complete control. A dash (-) response means no test result.

[4] = test system: kochia; assay: Test F postemergence; assay type: in vivo, Kochia scoparia; conditions: scale 0 to 100
Description: as §3, §4

[5] = test system: waterhemp_RES1 (ALS & Triazine resistant common waterhemp); assay: Test F postemergence; assay type: in vivo, Amaranthus rudis; conditions: scale 0 to 100
Procedure, shortened: (§5)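 Percent-control style visual scores, from 0 (no effect) to 100 (complete control), were given relative to controls. Treatment timing: preemergence on silt loam plantings, or postemergence at 1- to 4-leaf stage. Evaluation came 14 to 21 days after spraying, greenhouse conditions.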

[6] = test system: waterhemp_RES2 (ALS & HPPD resistant common waterhemp); assay: Test F postemergence; assay type: in vivo, Amaranthus rudis; conditions: scale 0 to 100
Procedure, shortened: as §5

[7] = test system: oat, wild; assay: Test D preemergence; assay type: in vivo, Avena fatua; conditions: scale 0 to 100
Description: Seeds of plant species selected from bluegrass (annual bluegrass, Poa annua), blackgrass (Alopecurus myosuroides), canarygrass (littleseed canarygrass, Phalaris minor), chickweed (common chickweed, Stellaria media), galium (catchweed bedstraw, Galium aparine), bromegrass, downy (downy bromegrass, Bromus tectorum), field poppy (Papaver rhoeas), field violet (Viola arvensis), foxtail, green (green foxtail, Setaria viridis), deadnettle (henbit deadnettle, Lamium amplexicaule), ryegrass, Italian (Italian ryegrass, Lolium multiflorum), kochia (Kochia scoparia), lambsquarters (Chenopodium album), oilseed rape (Brassica napus), pigweed (redroot pigweed, Amaranthus retroflexus), chamomile (scentless chamomile, Matricaria inodora), speedwell (bird's-eye speedwell, Veronica persica), barley, spring (spring barley, Hordeum vulgare), wheat, spring (spring wheat, Triticum aestivum), buckwheat, wild (wild buckwheat, Polygonum convolvulus), mustard, wild (wild mustard, Sinapis arvensis), oat, wild (wild oat, Avena fatua), radish, wild (wild radish, Raphanus raphanistrum), windgrass (Apera spica-venti), Russian thistle (Salsola kali), barley, winter (winter barley, Hordeum vulgare), and wheat, winter (winter wheat, Triticum aestivum) were planted into a silt loam soil and treated preemergence with test chemicals formulated in a non-phytotoxic solvent mixture which included a surfactant.
At the same time, these species were planted in pots containing Redi-Earth® planting medium (Scotts Company, 14111 Scottslawn Road, Marysville, Ohio 43041) comprising spaghnum peat moss, vermiculite, wetting agent and starter nutrients and treated with postemergence applications of the test chemicals formulated in the same manner. Plants ranged in height from 2 to 18 cm (1- to 4-leaf stage). Treated plants and controls were maintained in a controlled growth environment for 14 to 21 days after which time all species were compared to controls and visually evaluated. Plant response ratings, summarized in Table D, are based on a scale of 0 to 100 where 0 is no effect and 100 is complete control. A dash (-) response means no test result.

SMILES | Plant response rating, Bermudagrass ([1]; 16 g ai/ha) | Plant response rating, Bermudagrass ([1]; 31 g ai/ha) | Plant response rating, Bermudagrass ([1]; 62 g ai/ha) | Plant response rating, Bermudagrass ([1]; 125 g ai/ha) | Plant response rating, Bermudagrass ([1]; 250 g ai/ha) | Plant response rating, Johnsongrass ([2]; 16 g ai/ha) | Plant response rating, Johnsongrass ([2]; 31 g ai/ha) | Plant response rating, Johnsongrass ([2]; 62 g ai/ha) | Plant response rating, Johnsongrass ([2]; 125 g ai/ha) | Plant response rating, Johnsongrass ([2]; 250 g ai/ha) | Plant response rating, Fall Panicum ([3]; Postemergence, 31 g ai/ha) | Plant response rating, Fall Panicum ([3]; Postemergence, 125 g ai/ha) | Plant response rating, Fall Panicum ([3]; Postemergence, 250 g ai/ha) | Plant response rating, Fall Panicum ([3]; postemergence, 62 g ai/ha) | Plant response rating, Fall Panicum ([3]; postemergence, 500 g ai/ha) | Plant response rating, Kochia ([4]; Postemergence, 31 g ai/ha) | Plant response rating, Kochia ([4]; Postemergence, 125 g ai/ha) | Plant response rating, Kochia ([4]; Postemergence, 250 g ai/ha) | Plant response rating, Kochia ([4]; postemergence, 62 g ai/ha) | Plant response rating, Kochia ([4]; postemergence, 500 g ai/ha) | also measured
CCc1cc(C(=O)NCC(F)(F)F)nn1Cc1ccnc(C(F)(F)F)c1 [Compound 78, 5-ethyl-N-(2,2,2-trifluoroethyl)-1-[[(2-trifluoromethyl)-4-pyridinyl]methyl]-1H-pyrazole-3-carboxamide] | 70 | 85 | 100 | 100 | 100 | 40 | 80 | 85 | 100 | 100 | 10 | 50 | 90 | 20 | 95 | 65 | 90 | 90 | 90 | 95 | Plant response rating, Waterhemp_RES1 ([5]; Postemergence, 31 g ai/ha): 60; Plant response rating, Waterhemp_RES1 ([5]; Postemergence, 125 g ai/ha): 60; Plant response rating, Waterhemp_RES1 ([5]; Postemergence, 250 g ai/ha): 65; Plant response rating, Waterhemp_RES1 ([5]; postemergence, 62 g ai/ha): 70; Plant response rating, Waterhemp_RES1 ([5]; postemergence, 500 g ai/ha): 100; Plant response rating, Waterhemp_RES2 ([6]; Postemergence, 31 g ai/ha): 60; Plant response rating, Waterhemp_RES2 ([6]; Postemergence, 125 g ai/ha): 70; Plant response rating, Waterhemp_RES2 ([6]; Postemergence, 250 g ai/ha): 75; Plant response rating, Waterhemp_RES2 ([6]; postemergence, 62 g ai/ha): 65; Plant response rating, Waterhemp_RES2 ([6]; postemergence, 500 g ai/ha): 95
CCc1cc(C(=O)NC(C)C)nn1Cc1ccnc(C(F)(F)F)c1 [Compound 103] | 80 | 98 | 100 | 98 | 100 | 70 | 100 | 100 | 100 | 100 |  |  |  |  |  |  |  |  |  |  | 
CCOc1cc(C(=O)NCC(F)(F)F)nn1Cc1ccnc(C(F)(F)F)c1 [Compound 104] | 90 | 95 | 98 | 100 | 100 | 95 | 100 | 100 | 100 | 100 | 10 | 50 | 80 | 40 | 90 | 75 | 90 | 95 | 80 | 95 | Plant response rating, Waterhemp_RES1 ([5]; Postemergence, 31 g ai/ha): 70; Plant response rating, Waterhemp_RES1 ([5]; Postemergence, 125 g ai/ha): 90; Plant response rating, Waterhemp_RES1 ([5]; Postemergence, 250 g ai/ha): 75; Plant response rating, Waterhemp_RES1 ([5]; postemergence, 62 g ai/ha): 75; Plant response rating, Waterhemp_RES1 ([5]; postemergence, 500 g ai/ha): 85; Plant response rating, Waterhemp_RES2 ([6]; Postemergence, 31 g ai/ha): 80; Plant response rating, Waterhemp_RES2 ([6]; Postemergence, 125 g ai/ha): 95; Plant response rating, Waterhemp_RES2 ([6]; Postemergence, 250 g ai/ha): 80; Plant response rating, Waterhemp_RES2 ([6]; postemergence, 62 g ai/ha): 80; Plant response rating, Waterhemp_RES2 ([6]; postemergence, 500 g ai/ha): 85
CCCc1cc(C(=O)NCC(F)(F)F)nn1Cc1ccnc(C(F)(F)F)c1 [Compound 105] | 70 | 90 | 98 | 98 | 100 | 35 | 80 | 98 | 98 | 100 | 10 | 30 | 80 | 20 | 90 | 60 | 90 | 95 | 90 | 95 | Plant response rating, Waterhemp_RES1 ([5]; Postemergence, 31 g ai/ha): 70; Plant response rating, Waterhemp_RES1 ([5]; Postemergence, 125 g ai/ha): 75; Plant response rating, Waterhemp_RES1 ([5]; Postemergence, 250 g ai/ha): 90; Plant response rating, Waterhemp_RES1 ([5]; postemergence, 62 g ai/ha): 70; Plant response rating, Waterhemp_RES1 ([5]; postemergence, 500 g ai/ha): 95; Plant response rating, Waterhemp_RES2 ([6]; Postemergence, 31 g ai/ha): 60; Plant response rating, Waterhemp_RES2 ([6]; Postemergence, 125 g ai/ha): 75; Plant response rating, Waterhemp_RES2 ([6]; Postemergence, 250 g ai/ha): 85; Plant response rating, Waterhemp_RES2 ([6]; postemergence, 62 g ai/ha): 70; Plant response rating, Waterhemp_RES2 ([6]; postemergence, 500 g ai/ha): 95
CCCc1cc(C(=O)NCC(F)(F)F)nn1Cc1cc(C(F)(F)F)nn1C [Compound 138] |  |  |  |  |  |  |  |  |  |  |  |  |  |  |  |  |  |  |  |  | Plant response rating, Oat, Wild ([7]; 62 g ai/ha): 35; Plant response rating, Oat, Wild ([7]; 125 g ai/ha): 75; Plant response rating, Oat, Wild ([7]; 250 g ai/ha): 100
CCOc1cc(C(=O)NC2CC2)nn1Cc1ccnc(C(F)(F)F)c1 [Compound 189] | 65 | 85 | 98 |  |  | 25 | 100 | 100 |  |  |  |  |  |  |  |  |  |  |  |  | Plant response rating, Oat, Wild ([7]; 62 g ai/ha): 45; Plant response rating, Oat, Wild ([7]; 125 g ai/ha): 75; Plant response rating, Oat, Wild ([7]; 250 g ai/ha): 100; Plant response rating, Bermudagrass ([1]; 4 g ai/ha): 0; Plant response rating, Bermudagrass ([1]; 8 g ai/ha): 0; Plant response rating, Johnsongrass ([2]; 4 g ai/ha): 0; Plant response rating, Johnsongrass ([2]; 8 g ai/ha): 0

Reference: patent US20150105252A1, “SUBSTITUTED PYRAZOLES AS HERBICIDES” (E I DU PONT DE NEMOURS AND COMPANY, priority 2013, published 2015)
